Data taken from patent US4880777A, “Synthetic peptides having growth hormone releasing activity” (Eastman Kodak Company, priority 1987, dated 1989).
Several values for one entry are separate records, joined by “and”; a condition that tells them apart may be missing. Equal entries are not always repeated. Where a SMILES comes first, the peptide text is derived from it. Bridges are numbered along the chain shown (N, C = ends). [ ]: non-standard residue; d: D form. Nle = CCCC[C@H](N)C(=O)O

Columns and labels:
[1] = system: growth hormone (GH); experiment: In vivo synergistic effects on GH release in rats of combinations with Compound B (Group 3) and Compound C (Group 2); conditions: for synergism with Group 3 Compound B (in words): combination with Compound B (Tyr-DArg-Phe-Gly-NH2)
Description: (§1) Immature female Sprague-Dawley rats were obtained from the Charles River Laboratories (Wilmington, Mass.). After arrival they were housed at 25° C. with 14:10 hour light:dark cycle. Water and Purina rat choow were availablle ad libitum. Pups were kept with their mothers until 21 days of age.
(§2) Normal saline with 0.1% gelatin was the vehicle for s.c. and i.v. injections of Compounds 1 and 2 . The unanesthetized rats, weighing 55-65 grams, were injected i.v. with 0.2 ml solution via the tail vein. All animals were sacrificed by quillotine 10 minutes after the final test injection unless specified otherwise. Trunk blood for growth hormone (GH) determinations was collected following decapitation. The blood was allowed to clot, centrifuged and the serum separated from the clot. Serum was kept frozen until the day of sampling for radioimmunoassay (RIA) of growth hormone levels according to the following procedure, as developed by the National Institute of Arthritis, Diabetes and Digestive and Kidney Diseases (NIADDK).
(§3) The mixed reagents are then typically incubated at room temperature (about 25° C.) for about 24 hours prior to addition of a second antibody (e.g., goat or rabbit anti-monkey gamma globulin serum) which binds to and cause precipitation of the complexed growth hormone antiserum. Precipitated contents of the RIA tubes are then analyzed for the number of counts in a specified period of time in a gamma scintillation counter. A standard curve is prepared by plotting number of radioactive counts as a function of growth hormone (GH) level. GH levels of unknowns are then determined by reference to the standard curve.
(§4) Serum GH was measured by RIA with reagents provided by the National Hormone and Pituitary Program. Serum levels are recorded in ng/ml in terms of the rat GH standard with 0.61 IU/mg. Data is recorded as the mean ± standard error of the mean (SEM). Statistical analysis was performed with student's t-test.
Compound 1 and Compound 2 of Examples 1 and 2, respectively, were each combined with the Group 2 and/or Group 3 polypeptides identified in Table 4 below and in the proprotions shown. The combinations were then tested for GH release in rats by the same procedure set forth in Example 3.

[2] = system: growth hormone (GH); experiment: In vivo GH release in rats (serum GH by RIA, 10 minutes after i.v. injection); parameters: species or system Sprague-Dawley rats; conditions: for GH Release: immature female rats, serum GH 10 minutes after injection, mean ± SEM; for potency compared with Compound A (in words) / release of growth hormone when administered to rats via i.v. injection (in words): rats, i.v. injection
Description: as §1, §2
Reagents are generally added to the RIA analysis tubes at a single sitting, at refrigerator temperature (about 4° C.) in the following sequence:
(b) "cold" (i.e., non-radioactive) standard or unknown serum sample to be analyzed,
(c) radio-iodinated growth hormone antigen, and
(d) growth hormone antiserum.
Reagent addition is generally carried out so that there is achieved a final RIA tube dilution in the range of about 1:10,000 up to 1:500,000 (antiserum to total liquid volume; vol:vol).
as §3, §4

[3] = dose 10 of Column A compound combined with 30 μg Compound B
[4] = dose 30 of Column A compound combined with 30 μg Compound B

| Structure (SMILES) | synergism with Group 3 Compound B (in words) [1] | GH Release by Compound in Column A ([1]; dose 10, compound alone) | GH Release of Compound in Column A & 30 μg Compound B [1, 3] | GH Release of Compound in Column A & 30 μg Compound B & 10 μg Compound C ([1]; dose 10 of Column A compound combined with 30 μg Compound B and 10 μg Compound C) | GH Release by Compound in Column A ([1]; dose 30, compound alone) | GH Release of Compound in Column A & 30 μg Compound B [1, 4] | GH Release by Compound in Column A ([1]; dose 100, compound alone) | GH Release of Compound in Column A & 30 μg Compound B ([1]; dose 100 of Column A compound combined with 30 μg Compound B) | GH Release ([2]; 10 μg i.v.) | GH Release ([2]; 30 μg i.v.) | GH Release ([2]; 100 μg i.v.) | potency compared with Compound A (in words) [2] | release of growth hormone when administered to rats via i.v. injection (in words) [2] | GH Release by Compound in Column A ([1]; dose 3, compound alone) | GH Release of Compound in Column A & 30 μg Compound B ([1]; dose 3 of Column A compound combined with 30 μg Compound B) | GH Release ([2]; 3 μg i.v.) |
| --- | --- | --- | --- | --- | --- | --- | --- | --- | --- | --- | --- | --- | --- | --- | --- | --- |
| CCCC[C@H](NC(=O)[C@@H](NC(=O)[C@H](CC(=O)O)NC(=O)[C@H](CCC(N)=O)NC(=O)[C@H](CC(C)C)NC(=O)[C@H](CC(C)C)NC(=O)[C@H](CCCCN)NC(=O)[C@H](CCCNC(=N)N)NC(=O)[C@H](C)NC(=O)[C@H](CO)NC(=O)[C@H](CC(C)C)NC(=O)[C@H](CCC(N)=O)NC(=O)[C@H](CS)NC(=O)[C@H](CC(C)C)NC(=O)[C@@H](NC(=O)[C@H](CCCCN)NC(=O)[C@H](CCCNC(=N)N)NC(=O)[C@H](Cc1ccc(O)cc1)NC(=O)[C@H](CS)NC(=O)[C@H](CC(N)=O)NC(=O)[C@@H](NC(=O)[C@H](Cc1ccccc1)NC(=O)[C@@H](NC(=O)[C@H](C)NC(=O)[C@H](CC(=O)O)NC(=O)[C@H](C)NC(=O)[C@@H](N)Cc1ccc(O)cc1)[C@@H](C)CC)[C@@H](C)O)C(C)C)[C@@H](C)CC)C(=O)N[C@@H](CO)C(=O)N[C@@H](CCCNC(=N)N)C(N)=O [Compound 1] (H-YADAIFTNCYRKVLCQLSARKLLQDI[Nle]SR-NH2) | act synergistically | 145 ± 41 ng/mL and 77 ± 10 ng/mL | 3314 ± 275 ng/mL and 2078 ± 395 ng/mL | 4947 ± 366 ng/mL | 151 ± 33 ng/mL | 2875 ± 472 ng/mL | 374 ± 94 ng/mL | 2328 ± 297 ng/mL | 145 ± 41 ng/mL | 151 ± 33 ng/mL | 374 ± 94 ng/mL | potencies similar to Compound A | highly active |  |  |  |
| CCCC[C@H](NC(=O)[C@@H](NC(=O)[C@H](CC(=O)O)NC(=O)[C@H](CCC(N)=O)NC(=O)[C@H](CC(C)C)NC(=O)[C@H](CC(C)C)NC(=O)[C@H](CCCCN)NC(=O)[C@H](CCCNC(=N)N)NC(=O)[C@H](C)NC(=O)[C@H](CO)NC(=O)[C@H](CC(C)C)NC(=O)[C@H](CCC(N)=O)NC(=O)[C@@H]1CSSC[C@H](NC(=O)[C@H](CC(N)=O)NC(=O)[C@@H](NC(=O)[C@H](Cc2ccccc2)NC(=O)[C@@H](NC(=O)[C@H](C)NC(=O)[C@H](CC(=O)O)NC(=O)[C@H](C)NC(=O)[C@@H](N)Cc2ccc(O)cc2)[C@@H](C)CC)[C@@H](C)O)C(=O)N[C@@H](Cc2ccc(O)cc2)C(=O)N[C@@H](CCCNC(=N)N)C(=O)N[C@@H](CCCCN)C(=O)N[C@@H](C(C)C)C(=O)N[C@@H](CC(C)C)C(=O)N1)[C@@H](C)CC)C(=O)N[C@@H](CO)C(=O)N[C@@H](CCCNC(=N)N)C(N)=O [Compound 2] (H-YADAIFTNCYRKVLCQLSARKLLQDI[Nle]SR-NH2; disulfide 9-15) | act synergistically | 99 ± 11 ng/mL and 105 ± 29 ng/mL | 3733 ± 515 ng/mL and 2241 ± 323 ng/mL |  | 132 ± 24 ng/mL | 2652 ± 560 ng/mL |  |  | 99 ± 11 ng/mL | 132 ± 24 ng/mL |  | potencies similar to Compound A | highly active | 62 ± 8 ng/mL | 1689 ± 264 ng/mL | 62 ± 8 ng/mL |
